34 molecules from the Kinase Knowledgebase extract (Sharma et al. 2016) can be followed below.

The target in test [1] is PIK3CA (human) (UniProt P42336). In words: Inhibition of PIK3CA Kinase Activity.
Test [2] has the same target. Description: Inhibition of A2780 Cell Proliferation.

Sequence of PIK3CA (human) (P42336 whole entry, looked up): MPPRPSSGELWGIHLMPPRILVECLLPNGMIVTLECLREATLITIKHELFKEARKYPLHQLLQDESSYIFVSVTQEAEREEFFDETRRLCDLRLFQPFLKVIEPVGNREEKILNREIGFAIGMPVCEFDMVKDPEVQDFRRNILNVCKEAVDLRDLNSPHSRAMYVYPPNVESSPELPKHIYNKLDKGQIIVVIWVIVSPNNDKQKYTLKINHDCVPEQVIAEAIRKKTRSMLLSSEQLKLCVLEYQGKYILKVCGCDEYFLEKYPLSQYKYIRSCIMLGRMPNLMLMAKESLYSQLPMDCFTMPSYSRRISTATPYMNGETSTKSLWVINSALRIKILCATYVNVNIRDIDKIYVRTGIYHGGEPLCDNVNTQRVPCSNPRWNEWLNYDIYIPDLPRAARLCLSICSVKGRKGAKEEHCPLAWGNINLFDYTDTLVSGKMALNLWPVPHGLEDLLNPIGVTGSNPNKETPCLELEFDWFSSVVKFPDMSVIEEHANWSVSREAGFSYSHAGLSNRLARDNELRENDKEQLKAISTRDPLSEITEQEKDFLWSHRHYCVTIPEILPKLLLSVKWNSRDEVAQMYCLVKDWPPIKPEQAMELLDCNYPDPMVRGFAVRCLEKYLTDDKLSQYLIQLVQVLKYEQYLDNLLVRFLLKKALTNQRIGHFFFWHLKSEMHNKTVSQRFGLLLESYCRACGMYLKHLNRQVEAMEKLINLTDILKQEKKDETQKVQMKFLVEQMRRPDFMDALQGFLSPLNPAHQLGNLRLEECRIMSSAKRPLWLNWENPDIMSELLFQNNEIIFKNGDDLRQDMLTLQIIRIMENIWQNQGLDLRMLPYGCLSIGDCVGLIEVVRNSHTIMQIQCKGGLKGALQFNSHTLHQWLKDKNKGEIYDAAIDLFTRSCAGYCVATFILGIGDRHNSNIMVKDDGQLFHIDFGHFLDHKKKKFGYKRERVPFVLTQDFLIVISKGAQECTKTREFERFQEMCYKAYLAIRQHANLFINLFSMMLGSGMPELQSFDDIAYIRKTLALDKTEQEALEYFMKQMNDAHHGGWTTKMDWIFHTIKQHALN

With `CC(C)(C)OC(=O)N1CCC[C@@H]1C(=O)Nc1cn2nc(-c3cnc(N)c(C(F)(F)F)c3)ccc2n1`, the IC50 (usually the concentration that inhibits the measured activity by half) at PIK3CA (human) [1] was less than 1000 nM. Further, the EC50 (commonly the concentration giving half of the maximal effect) on PIK3CA (human) [2] is less than 25000 nM.
For `NCCC(=O)Nc1cn2nc(-c3cnc(N)c(C(F)(F)F)c3)ccc2n1`, the IC50 on PIK3CA (human) [1] is less than 1000 nM. Also, the EC50 at PIK3CA (human) [2] is less than 10000 nM.
On PIK3CA (human) [1], `CC(=O)Nc1cn2cc(-c3cnc(N)c(OC4CN(C(=O)OC(C)(C)C)C4)n3)ccc2n1` came in with an IC50 of less than 1000 nM. Further, the EC50 on PIK3CA (human) [2] was less than 1000 nM.
With `Nc1ccc(-c2ccc3nc(NC(=O)CCCN4CCOCC4)sc3c2)cn1`, at PIK3CA (human) [1], the IC50 was less than 1000 nM. On PIK3CA (human) [2], the EC50 was less than 25000 nM.
With `CC(=O)Nc1cn2cc(-c3cnc(N)c(-c4cccc(F)c4)c3)ccc2n1`, the IC50 on PIK3CA (human) [1] was less than 1000 nM. For the same molecule, the EC50 at PIK3CA (human) [2] was less than 10000 nM.
In turn, `CC(=O)Nc1nc2ccc(-c3cnc(N)cc3C)cc2s1` gave an IC50 against PIK3CA (human) [1] of less than 1000 nM. Besides, at PIK3CA (human) [2], the EC50 was less than 25000 nM.
On the same counts, the results for `Nc1ncc(-c2ccc3nc(NC(=O)c4ccc(F)cc4)cn3c2)cc1C(F)(F)F` are less than 1000 nM and less than 1000 nM.
On the same counts, the results for `C/C=C/c1c(NC(C)=O)nc2ccc(-c3cnc(N)c(C(F)(F)F)c3)cn12` are less than 1000 nM and less than 10000 nM.
On the same counts, the results for `CC(=O)Nc1nc2ccc(-c3cnc(N)c(C(=O)N4CCOCC4)c3)cc2s1` are less than 1000 nM and less than 10000 nM.
`Nc1ncc(-c2ccc3nc(NC(=O)[C@@H]4CCN4)cn3c2)cc1C(F)(F)F` returned an IC50 against PIK3CA (human) [1] of less than 1000 nM. In addition, the EC50 on PIK3CA (human) [2] is less than 10000 nM.
The like results for `COCCOc1nc(-c2ccc3nc(NC(=O)C4CCN4)cn3c2)cnc1N` (stereo not drawn) were, in that order, less than 1000 nM and less than 25000 nM.
The like results for `CC(=O)N1CCC[C@H]1C(=O)Nc1cn2cc(-c3cnc(N)c(Cl)c3)ccc2n1` were, in that order, less than 1000 nM and less than 25000 nM.
On the same counts, the results for `CC(=O)Nc1cn2cc(-c3ccc(N)nc3F)ccc2n1` are less than 1000 nM and less than 10000 nM.
On to `CC(=O)Nc1cn2nc(-c3cnc(N)cn3)ccc2n1`, for which the IC50 against PIK3CA (human) [1] was less than 1000 nM. Also, on PIK3CA (human) [2], the EC50 is less than 25000 nM.
`Nc1ncc(-c2ccc3nc(NC(=O)N4CCCC4C(F)(F)F)cn3c2)cc1C(F)(F)F` (stereo not drawn) yielded an IC50 at PIK3CA (human) [1] of less than 1000 nM. This molecule also yielded an EC50 at PIK3CA (human) [2] of less than 10000 nM.
As to `CC(=O)Nc1cn2cc(-c3cnc(N)c(Oc4cccc(F)c4)n3)ccc2n1`, at PIK3CA (human) [1], the IC50 is less than 1000 nM. Besides, the EC50 on PIK3CA (human) [2] was less than 1000 nM.
Turning to `CC(=O)Nc1cn2cc(-c3cnc(N)c(OC4CCN(C)CC4)n3)ccc2n1`, the IC50 on PIK3CA (human) [1] was less than 10000 nM. On PIK3CA (human) [2], the EC50 was less than 25000 nM.
At PIK3CA (human) [1], `COc1nc(-c2cc(F)c3nc(NC(C)=O)cn3c2)cnc1N` gave an IC50 of less than 1000 nM. The EC50 on PIK3CA (human) [2] is less than 25000 nM.
On the same counts, the results for `CC(C)(C)OC(=O)N1CC[C@H]1C(=O)Nc1cn2cc(-c3cnc(N)c(C(F)(F)F)c3)ccc2n1` are less than 1000 nM and less than 25000 nM.
`COC[C@@H]1CCCN1C(=O)Nc1cn2cc(-c3cnc(N)c(C(F)(F)F)c3)ccc2n1` came in with an IC50 against PIK3CA (human) [1] of less than 1000 nM. This molecule displayed an EC50 at PIK3CA (human) [2] of less than 25000 nM.
On the same counts, the results for `CC(=O)Nc1cn2nc(-c3cnc(N)c(N4CCOCC4)n3)ccc2n1` are less than 1000 nM and less than 25000 nM.
The like results for `Nc1ncc(-c2ccc3nc(NC(=O)C4CCN4)cn3c2)nc1OCC(F)(F)F` (stereo not drawn) were, in that order, less than 1000 nM and less than 10000 nM.
On the same counts, the results for `CC(=O)Nc1nc2ccc(-c3cnc(N)c(C(F)(F)F)c3)cn2c1C#Cc1ccccc1` are less than 1000 nM and less than 10000 nM.
On PIK3CA (human) [1], `CC(=O)Nc1cn2cc(-c3cnc(N)c(C=NN(C)C)c3)ccc2n1` yielded an IC50 of less than 1000 nM. Further, the EC50 at PIK3CA (human) [2] was less than 10000 nM.
Consider `COc1ccc(CC(=O)Nc2cn3cc(-c4cnc(N)c(C(F)(F)F)c4)ccc3n2)cc1OC`, for which the IC50 against PIK3CA (human) [1] is less than 1000 nM. The molecule also displayed an EC50 on PIK3CA (human) [2] of less than 10000 nM.
On the same counts, the results for `CC(=O)Nc1cn2cc(-c3cnc(N)c(-c4ccc(OC(F)(F)F)cc4)c3)ccc2n1` are less than 1000 nM and less than 1000 nM.
The like results for `Nc1ncc(-c2ccc3nc(NC(=O)COC4CCNCC4)cn3c2)cc1C(F)(F)F` were, in that order, less than 1000 nM and less than 10000 nM.
`CNC(=O)C1CCN(C(=O)Nc2cn3cc(-c4cnc(N)c(C(F)(F)F)c4)ccc3n2)C1` (stereo not drawn) returned an IC50 against PIK3CA (human) [1] of less than 1000 nM. The same molecule gave an EC50 at PIK3CA (human) [2] of less than 25000 nM.
The like results for `CCNN=Cc1cc(-c2ccc3nc(NC(C)=O)cn3c2)cnc1N` were, in that order, less than 1000 nM and less than 10000 nM.
The like results for `CC(=O)Nc1cn2nc(-c3cnc(N)c(CN4CCCC4)c3)ccc2n1` were, in that order, less than 1000 nM and less than 10000 nM.
At PIK3CA (human) [1], `COCCOc1nc(-c2ccc3nc(NC(=O)C4CCN4C(C)=O)cn3c2)cnc1N` (stereo not drawn) yielded an IC50 of less than 1000 nM. Besides, the half-maximal effective concentration (EC50) at PIK3CA (human) [2] was less than 10000 nM.
In turn, `CC(=O)Nc1nc2ccc(-c3cnc(N)c(OCC(F)(F)F)n3)cc2s1` yielded an IC50 against PIK3CA (human) [1] of less than 1000 nM. The EC50 on PIK3CA (human) [2] is less than 1000 nM.
In turn, `CCN(CC)Cc1cc(-c2ccc3nc(NC(C)=O)cn3c2)cnc1N` registered an IC50 against PIK3CA (human) [1] of less than 1000 nM. The same molecule came in with an EC50 on PIK3CA (human) [2] of less than 25000 nM.
The like results for `COc1cc(-c2ccc3nc(NC(C)=O)c(Br)n3c2)cnc1N` were, in that order, less than 1000 nM and less than 10000 nM.
